These are literature values, as cited in article PMC8198792, “Prediction of Anticancer Peptides with High Efficacy and Low Toxicity by Hybrid Model Based on 3D Structure of Peptides” (International Journal of Molecular Sciences, 2021).

Read-outs that look alike come from different tables or passages of the source.

For the data set, the system named is cancer cell lines. Further details: method as in 6 sources, ref CancerPPD [45] and SATPdb ||| ref CancerPPD/SATPdb ||| ref CancerPPD, SATPdb, Swissprot (PDB) ||| ref CancerPPD/SATPdb/Swissprot(PDB) ||| ref CancerPPD / SATPdb ||| ... The note with it: cited from earlier work. The source says: Supplement ijms-22-05630-s001.zip/ACPs(seguence).xlsx, sheet "D1" | column: Activity || Supplement ijms-22-05630-s001.zip/ACPs(seguence).xlsx, sheet "D2" | column: Activity || Supplement ijms-22-05630-s001.zip/ACPs(seguence).xlsx, sheet "D3" | column: Activity || (+ 2 further places)

[1] abbreviates: ACPs dataset D1, 1 = ACP (positive), 0 = non-ACP (negative), label taken from databases, ref CancerPPD [45] and SATPdb.
[2] abbreviates: ACPs dataset D4 (sheet "D4"), label 1 = ACP, experimentally validated ACPs, ref CancerPPD [45] and SATPdb.
[3] abbreviates: ACPs dataset D5 (sheet "D5"), label 1 = ACP (positive set), sequences with CancerPPD/SATPdb ID, ref CancerPPD, SATPdb.
[4] abbreviates: ACPs dataset sheet D2, 1 = ACP (CancerPPD/SATPdb ID), 0 = non-ACP (Swissprot/PDB ID), ref CancerPPD, SATPdb, Swissprot (PDB).
Where [5] appears, read: ACPs dataset D3 (sheet "D3"), label 1 = ACP, 0 = non-ACP, ref CancerPPD/SATPdb.
[6] abbreviates: ACPs dataset D4 (sheet "D4"), label 1 = ACP, 0 = non-ACP, ref CancerPPD / SATPdb.
Where [7] appears, read: ACPs dataset D5, sheet "D5", label 1 = ACP, 0 = non-ACP, ref CancerPPD [45] and SATPdb.
The mark [8] stands for this setting: ACPs dataset D1, label 1 = ACP, 0 = non-ACP (non-anticancer AMPs from SATPdb), ref CancerPPD/SATPdb.
Where [9] appears, read: ACPs dataset D4 (sheet "D4"), label 1 = ACP (CancerPPD ID), 0 = non-ACP (non-anticancer AMP, SATPdb ID), ref CancerPPD [45] and SATPdb.
The mark [10] stands for this setting: ACPs dataset D3 (supplement sheet "D3"), 1 = ACP, 0 = non-ACP, ref CancerPPD [45] and SATPdb.
The mark [11] stands for this setting: ACPs dataset D5 (sheet "D5"), label 1 = ACP (positive set), 0 = non-ACP (negative set), ref CancerPPD [45] and SATPdb.

“GLLSVLGSVAKHVLPHVVPVIAEHL [compound 4424]”: the Activity under setting [1] is given as 1, the Activity under setting [2] was 1, the Activity under setting [3] is given as 1 and the Activity under setting [4] is on record as 1.
With “GLMDTIKGVAKTVAASWLDKLKCKITGC [compound 4362]”, the Activity by setting is: under setting [1], 1; under setting [2], 1; under setting [3], 1; under setting [4], 1.
Regarding GLPRKILAAIAKKK [satpdb14133], the Activity runs as follows: under setting [5], 0; under setting [6], 0; under setting [7], 0.
Turning to “GLPTCGETCTLGTCYVPDCSCSWPICMKN [compound 4381]”, the Activity was 1 under setting [1], 1 under setting [2], 1 under setting [3] and 1 under setting [4].
For “GLPVCGETCFGGTCNTPGCTCDPWPVCTRN [compound 4427]”, the Activity runs as follows: under setting [1], 1; under setting [2], 1; under setting [3], 1; under setting [4], 1.
For “GLPVCGETCTLGTCYTQGCTCSWPICKRN [satpdb13318]”, the Activity reads like this: under setting [8], 0; under setting [6], 0.
Take “GLWSKIKEAAKAAGKAALNAVTGLVNQGDQPS [compound 4452]”: the Activity runs as follows: under setting [1], 1; under setting [2], 1; under setting [3], 1; under setting [4], 1.
Turning to GMATKAGTAFGKAAKAIIGAAL [satpdb11334], the Activity is, setting by setting: under setting [1], 0; under setting [9], 0.
Regarding GMWKKILGKLIR [compound 3643], the Activity by setting is: under setting [10], 1; under setting [9], 1; under setting [11], 1.
On to GMWSKILGHLIK [compound 3636], for which the Activity runs as follows: under setting [10], 1; under setting [9], 1; under setting [11], 1.
As to GMWSKILGHLKR [compound 3637], the Activity is, setting by setting: under setting [10], 1; under setting [9], 1; under setting [11], 1.
Regarding GMWSKILGKLIR [compound 3638], the Activity was 1 under setting [10], 1 under setting [9] and 1 under setting [11].
Turning to “GPSQPTYPGDDAPVEDLIRFYNDLQQYLNVVTRHRY [1PPT X-ray 1.37 A 1-36]”, the Activity (ACPs dataset D2 (supplement ACPs(seguence).xlsx, sheet D2), dataset label 1/0 (ACP / non-ACP), entries identified by Swissprot(PDB ID), ref CancerPPD/SATPdb/Swissprot(PDB)) was 0 and the Activity under setting [11] was 0.
Take GPWAPCSASCGGGSQSRS [satpdb28727]: the Activity reads like this: under setting [1], 1; under setting [2], 1; under setting [3], 1; under setting [4], 1.
For the substance GPWERCTAQCGGGIQARRR [satpdb29089], the Activity is recorded as 1 under setting [1], 1 under setting [2], 1 under setting [3] and 1 under setting [4].
With GPWGPCSGSCGPGRRLRRR [satpdb14705], the Activity is 1 under setting [1], 1 under setting [2], 1 under setting [3] and 1 under setting [4].
For the substance GRLKRLRKKLKKLLKKLS [satpdb12346], the Activity was 0 under setting [5], 0 under setting [6] and 0 under setting [7].
As to “GRRKRKWLRRIGKGVKIIGGAALDHL [compound 4351]”, the Activity under setting [10] is recorded as 1, the Activity under setting [9] is on record as 1 and the Activity under setting [11] was 1.
As for “GRVPYPRGGLLkLLKklLKKLlKL [compound 3587]”, the Activity under setting [10] is 1, the Activity under setting [9] was 1 and the Activity under setting [11] is 1.
As to “GSEGPLKPGARIFSFDGKDVLRHPT [compound 4204]”, the Activity by setting is: under setting [1], 1; under setting [2], 1; under setting [3], 1; under setting [4], 1.
In the case of “GSIPACGESCFKGKCYTPGCSCSKYPLCAKN [2GJ0 NMR - A 1-31]”, the Activity is 0 under setting [11] and 0 under setting [4].
As to “GSIPCAESCVYIPCITGIAGCSCKNKVCYYN [satpdb12154]”, the Activity under setting [8] is 0 and the Activity under setting [9] was 0.
